For experiment [1], the system named is 3'-TAMRA-labeled Myc2345_T23 (DNA, G4) TGAGGGTGGGTAGGGTGGGTAA
Kind of experiment: TAMRA fluorescence quenching titration. Conditions: K+ (25 mM potassium phosphate, 75 mM KCl); pH 7, 25°C; 100 nM DNA.

Experiment [2] has as its system Myc2345_T23 (DNA, G4) TGAGGGTGGGTAGGGTGGGTAA
Kind of experiment: CD melting (260 nm). Conditions: K+ 0.6 mM; potassium phosphate, pH 7; 5 μM DNA, 25 μM PEQ.

For experiment [3] the test system is unchanged. Kind of experiment: fluorescence competition (TAMRA quenching restored by unlabeled DNA). Conditions: K+ (25 mM potassium phosphate, 75 mM KCl); pH 7, 25°C; C50 is concentration of competing unlabeled DNA; 100 nM 3'-TAMRA-Myc2345_T23, PEQ 10:1.
In experiment [4] the test system is Myc2345 (DNA, G4) TGAGGGTGGGTAGGGTGGGGAA
Described as above. Conditions: K+ (25 mM potassium phosphate, 75 mM KCl); pH 7, 25°C; C50 is concentration of competing unlabeled DNA; 100 nM 3'-TAMRA-Myc2345_T23, PEQ 10:1.

For experiment [5] the test system is unchanged. Kind of experiment: CD melting (260 nm). Conditions: K+ 0.6 mM; potassium phosphate, pH 7; 5 μM DNA, 25 μM PEQ.
Experiment [6] has the same test system. As to the kind of experiment: NMR solution structure. Conditions: K+ 10 mM (potassium phosphate); pH 7.0; PEQ:DNA 3:1; end-stacking on 5'- and 3'-tetrads.
The test system of experiment [7] is Myc2345_T23 (DNA, G4) TGAGGGTGGGTAGGGTGGGTAA
Kind of experiment: NMR solution structure. Conditions: K+ 10 mM (potassium phosphate); pH 6.5; PEQ:DNA 3:1; end-stacking on 5'- and 3'-tetrads.

SMILES strings stand for the structures.

As for `COc1cc(/C=C/c2cc(C(N)=O)c3ccccc3[n+]2C)ccc1O`, the binding entry in experiment [1], in experiment [6] and in experiment [7] was “yes” throughout. In addition, the thermal shift (ΔTm) stood at 21.1 ± 1.3 °C in experiment [2] and 20.1 ± 0.6 °C in experiment [5]. In addition, the C50 was determined as 3.71 µM in experiment [3] and 4.86 µM in experiment [4].
